Legend:
Experiment in all cases: relative viability (nuclei count vs DMSO), 5 days (fraction); higher = more cells survive
Elesclomol = compound: CN(NC(=O)CC(=O)NN(C)C(=S)c1ccccc1)C(=S)c1ccccc1 [Elesclomol]
Outline: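 Cells of lung cancer lines were placed in 1536-well plates and kept overnight at 37 °C. Pinning then delivered five library-drug doses (not always all listed), spaced by √10, onto plates anchored with vehicle, and the cells were left 5 days without changing medium. One step fixed, permeabilised and stained them with Hoechst, and MetaXpress counted nuclei in 4× images. Viability, as a median over plates, is treated-well nuclei divided by vehicle-well nuclei, with acceptance only at control CV below 25% and at least one doubling.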

Elesclomol + Bortezomib = compound: CN(NC(=O)CC(=O)NN(C)C(=S)c1ccccc1)C(=S)c1ccccc1 [Elesclomol] + CC(C)C[C@H](NC(=O)[C@H](Cc1ccccc1)NC(=O)c1cnccn1)B(O)O [Bortezomib] (partner 0.002 µM)
Outline: (§1)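 Cells from lung cancer lines were seeded into 1536-well plates and, one day later, dosed by pin tool. Treatments were either a single drug or a fixed dose of an anchor drug with five library-drug doses (not always all listed) in √10 steps. After 5 days, nuclei were stained in a one-step fixation (final 0.05% Triton X-100, 1% formaldehyde, 1 ug/ml Hoechst) and counted on 4× images, and relative viability is the treated-to-vehicle nuclei ratio, as the median of duplicate plates.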

Elesclomol + Pictilisib = compound: CN(NC(=O)CC(=O)NN(C)C(=S)c1ccccc1)C(=S)c1ccccc1 [Elesclomol] + CS(=O)(=O)N1CCN(Cc2cc3nc(-c4cccc5[nH]ncc45)nc(N4CCOCC4)c3s2)CC1 [Pictilisib] (partner 1 µM)
Outline: as §1

Elesclomol + Navitoclax = compound: CN(NC(=O)CC(=O)NN(C)C(=S)c1ccccc1)C(=S)c1ccccc1 [Elesclomol] + CC1(C)CCC(c2ccc(Cl)cc2)=C(CN2CCN(c3ccc(C(=O)NS(=O)(=O)c4ccc(N[C@H](CCN5CCOCC5)CSc5ccccc5)c(S(=O)(=O)C(F)(F)F)c4)cc3)CC2)C1 [Navitoclax] (partner 0.5 µM)
Outline: as §1

Elesclomol + Foretinib = compound: CN(NC(=O)CC(=O)NN(C)C(=S)c1ccccc1)C(=S)c1ccccc1 [Elesclomol] + COc1cc2c(Oc3ccc(NC(=O)C4(C(=O)Nc5ccc(F)cc5)CC4)cc3F)ccnc2cc1OCCCN1CCOCC1 [Foretinib] (partner 0.25 µM)
Outline: as §1

Elesclomol + Olaparib = compound: CN(NC(=O)CC(=O)NN(C)C(=S)c1ccccc1)C(=S)c1ccccc1 [Elesclomol] + O=C(c1cc(Cc2n[nH]c(=O)c3ccccc23)ccc1F)N1CCN(C(=O)C2CC2)CC1 [Olaparib] (partner 8 µM)
Outline: as §1

Elesclomol + Lapatinib = compound: CN(NC(=O)CC(=O)NN(C)C(=S)c1ccccc1)C(=S)c1ccccc1 [Elesclomol] + CS(=O)(=O)CCNCc1ccc(-c2ccc3ncnc(Nc4ccc(OCc5cccc(F)c5)c(Cl)c4)c3c2)o1 [Lapatinib] (partner 2 µM)
Outline: as §1

Elesclomol + Crizotinib = compound: CN(NC(=O)CC(=O)NN(C)C(=S)c1ccccc1)C(=S)c1ccccc1 [Elesclomol] + C[C@@H](Oc1cc(-c2cnn(C3CCNCC3)c2)cnc1N)c1c(Cl)ccc(F)c1Cl [Crizotinib] (partner 1 µM)
Outline: as §1

Elesclomol + Linsitinib = compound: CN(NC(=O)CC(=O)NN(C)C(=S)c1ccccc1)C(=S)c1ccccc1 [Elesclomol] + C[C@]1(O)C[C@@H](c2nc(-c3ccc4ccc(-c5ccccc5)nc4c3)c3c(N)nccn32)C1 [Linsitinib] (partner 1 µM)
Outline: as §1

Elesclomol + Alpelisib = compound: CN(NC(=O)CC(=O)NN(C)C(=S)c1ccccc1)C(=S)c1ccccc1 [Elesclomol] + Cc1nc(NC(=O)N2CCC[C@H]2C(N)=O)sc1-c1ccnc(C(C)(C)C(F)(F)F)c1 [Alpelisib] (partner 2 µM)
Outline: as §1

## EBC-1
Elesclomol; 0.003162 µM
  relative viability: 0.983
Elesclomol; 0.01 µM
  relative viability: 0.74
Elesclomol; 0.03162 µM
  relative viability: 0.506
Elesclomol; 0.1 µM
  relative viability: 0.349
Elesclomol + Bortezomib; first compound 0.003162 µM
  relative viability: 0.497
Elesclomol + Bortezomib; first compound 0.01 µM
  relative viability: 0.436
Elesclomol + Bortezomib; first compound 0.03162 µM
  relative viability: 0.208
Elesclomol + Bortezomib; first compound 0.1 µM
  relative viability: 0.156
Elesclomol + Pictilisib; first compound 0.003162 µM
  relative viability: 0.335
Elesclomol + Pictilisib; first compound 0.01 µM
  relative viability: 0.17
Elesclomol + Pictilisib; first compound 0.03162 µM
  relative viability: 0.156
Elesclomol + Pictilisib; first compound 0.1 µM
  relative viability: 0.148
Elesclomol + Navitoclax; first compound 0.003162 µM
  relative viability: 0.374
Elesclomol + Navitoclax; first compound 0.01 µM
  relative viability: 0.228
Elesclomol + Navitoclax; first compound 0.03162 µM
  relative viability: 0.146
Elesclomol + Navitoclax; first compound 0.1 µM
  relative viability: 0.132
Elesclomol + Foretinib; first compound 0.003162 µM
  relative viability: 0.11
Elesclomol + Foretinib; first compound 0.01 µM
  relative viability: 0.1
Elesclomol + Foretinib; first compound 0.03162 µM
  relative viability: 0.0784
Elesclomol + Foretinib; first compound 0.1 µM
  relative viability: 0.0763
Elesclomol + Olaparib; first compound 0.003162 µM
  relative viability: 0.655
Elesclomol + Olaparib; first compound 0.01 µM
  relative viability: 0.544
Elesclomol + Olaparib; first compound 0.03162 µM
  relative viability: 0.487
Elesclomol + Olaparib; first compound 0.1 µM
  relative viability: 0.291
Elesclomol + Lapatinib; first compound 0.003162 µM
  relative viability: 0.239
Elesclomol + Lapatinib; first compound 0.01 µM
  relative viability: 0.183
Elesclomol + Lapatinib; first compound 0.03162 µM
  relative viability: 0.177
Elesclomol + Lapatinib; first compound 0.1 µM
  relative viability: 0.157
Elesclomol + Crizotinib; first compound 0.003162 µM
  relative viability: 0.18
Elesclomol + Crizotinib; first compound 0.01 µM
  relative viability: 0.199
Elesclomol + Crizotinib; first compound 0.03162 µM
  relative viability: 0.151
Elesclomol + Crizotinib; first compound 0.1 µM
  relative viability: 0.135
Elesclomol + Linsitinib; first compound 0.003162 µM
  relative viability: 0.892
Elesclomol + Linsitinib; first compound 0.01 µM
  relative viability: 0.614
Elesclomol + Linsitinib; first compound 0.03162 µM
  relative viability: 0.484
Elesclomol + Linsitinib; first compound 0.1 µM
  relative viability: 0.227
Elesclomol + Alpelisib; first compound 0.003162 µM
  relative viability: 0.733
Elesclomol + Alpelisib; first compound 0.01 µM
  relative viability: 0.354
Elesclomol + Alpelisib; first compound 0.03162 µM
  relative viability: 0.268
Elesclomol + Alpelisib; first compound 0.1 µM
  relative viability: 0.206
